Measured values as given in patent US20220324835A1 (Nurix Therapeutics, Inc., priority 2018, published 2022).

Legend:
[1] = target: T1, Cbl-b (Homo sapiens, UniProt Q13191); assay: Cbl-b activity assay (Cbl-b inhibition assay), TR-FRET of Cbl-b interaction with UbcH5B-Ub; assay type: biochemical; conditions: assay buffer with 100 mM NaCl, 60 nM Src kinase; read-out: Cbl-b activity IC50
How it was run: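 TR-FRET readout of Cbl-b binding to Bodipy-fluorescein N-terminally labeled Ub conjugated to UbcH5B C85K, measured with compound present. After compound incubation, 60 nM Src kinase with 1 mM ATP and 5 mM MgCl2 (final) was added for 1.5 h, then a further 1 h incubation; asterisked values used 50 mM NaCl buffer and 30 nM Src.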

[2] = tested on: T-cell; assay: IL-2 secretion from T-cells co-stimulated with anti-CD3 and anti-CD28 antibody (Biological Example 2); assay type: cell-based, human; conditions: Homo sapiens, T-cell, fold change over baseline, primary human total T-cells, read-out: IL-2 secretion Anti-CD3/Anti-CD28 stimulation; for fold induction at 0.3 µM: 0.3 μM Cbl-b inhibitor; for fold induction at 1 µM: 1 μM Cbl-b inhibitor; for fold induction at 4 µM: 4 μM Cbl-b inhibitor
Description: (§1) Methods for experimentally determining increased T-cell activation, increased T-cell proliferation, decreased T-cell exhaustion, and/or decreased T-cell tolerance are well known in the art.
(§2) Modulation of activity of an immune cell, such as a T-cell, a B cell or a NK cell can be measured by determining a baseline value for a parameter of interest (e.g., cytokine secretion). […] A reference value then is obtained for T-cell activation after contacting or administering said Cbl-b inhibitor. The reference value is compared to the baseline value in order to determine the amount of T-cell activation due to contact or administration of the Cbl-b inhibitor or composition thereof. […] Immune cell activation can be assessed by measuring biological markers of activation such as increased cytokine secretion, increased cell surface expression of activation markers (e.g., cell surface markers), or increased phosphorylation of proteins in a downstream signaling pathway. The fold over baseline value that indicates immune cell activation can be determined for the parameter being tested and the conditions under which the immune cell were treated. For example, for measuring T-cell activation, a baseline value can be obtained from T-cells stimulated with anti-CD3 antibody in combination with anti-CD28 antibody, wherein the cells are not incubated with a Cbl-b inhibitor. […] A positive response for immune cell activation can then be determined by the obtained reference value. […]

[3] = tested on: T-cell; assay: IL-2 secretion from T-cells stimulated with anti-CD3 antibody alone (Biological Example 2); assay type: cell-based, human; conditions: T-cell, fold change over baseline, primary human total T-cells, read-out: IL-2 secretion Anti-CD3 stimulation; for fold induction at 1 µM: 1 μM Cbl-b inhibitor; for fold induction at 8 µM: 8 μM Cbl-b inhibitor
Description: as §1
(§3) Modulation of activity of an immune cell, such as a T-cell, a B cell or a NK cell can be measured by determining a baseline value for a parameter of interest (e.g., cytokine secretion). […] A reference value then is obtained for T-cell activation after contacting or administering said Cbl-b inhibitor. The reference value is compared to the baseline value in order to determine the amount of T-cell activation due to contact or administration of the Cbl-b inhibitor or composition thereof. […] Immune cell activation can be assessed by measuring biological markers of activation such as increased cytokine secretion, increased cell surface expression of activation markers (e.g., cell surface markers), or increased phosphorylation of proteins in a downstream signaling pathway. The fold over baseline value that indicates immune cell activation can be determined for the parameter being tested and the conditions under which the immune cell were treated. For example, for measuring T-cell activation, a baseline value can be obtained from T-cells stimulated with anti-CD3 antibody in combination with anti-CD28 antibody, wherein the cells are not incubated with a Cbl-b inhibitor. […] A positive response for immune cell activation can then be determined by the obtained reference value.
(§4) In some embodiments, a baseline value can be obtained from T-cells stimulated with anti-CD3 antibody alone, wherein the cells are not incubated with a Cbl-b inhibitor. In some embodiments, a positive response for T-cell activation as measured by cytokine secretion (e.g., IL-2 secretion) by T-cells stimulated with anti-CD3 antibody alone in the presence of a Cbl-b inhibitor is at least 0.1-fold over the baseline value for cytokine secretion (e.g., IL-2 secretion) obtained from T-cells stimulated with anti-CD3 antibody alone in the absence of a Cbl-b inhibitor. In some embodiments, a positive response for T-cell activation as measured by surface marker expression (e.g., CD25 surface marker staining) by T-cells stimulated with anti-CD3 antibody alone in the presence of a Cbl-b inhibitor is at least 0.6-fold over the baseline value for surface marker expression (e.g., CD25 surface marker staining) obtained from T-cells stimulated with anti-CD3 antibody alone in the absence of a Cbl-b inhibitor.

[4] = tested on: T-cell; assay: CD25 cell surface staining on T-cells stimulated with anti-CD3 antibody alone (Biological Example 2); assay type: cell-based, human; conditions: T-cell, fold change over baseline, primary human total T-cells, read-out: CD25 staining Anti-CD3 stimulation; for fold induction at 1 µM: 1 μM Cbl-b inhibitor; for fold induction at 8 µM: 8 μM Cbl-b inhibitor
Description: as §1, §3, §4

[5] = tested on: T-cell; assay: CD25 cell surface staining on T-cells co-stimulated with anti-CD3 and anti-CD28 antibody (Biological Example 2); assay type: cell-based, human; conditions: Homo sapiens, T-cell, fold change over baseline, primary human total T-cells, read-out: CD25 staining Anti-CD3/Anti-CD28 stimulation; for fold induction at 0.3 µM: 0.3 μM Cbl-b inhibitor; for fold induction at 1 µM: 1 μM Cbl-b inhibitor; for fold induction at 4 µM: 4 μM Cbl-b inhibitor
Description: as §1, §2

[6] = target: T1, Cbl-b; assay: Cbl-b inhibition assay (Cbl-b activity assay, FRET, Biological Example 1; 100 mM NaCl, 60 nM Src kinase); assay type: biochemical; conditions: upper bound stated in text lists; read-out: IC50 values in the Cbl-b inhibition assay of Biological Example 1
How it was run: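 Inhibitor activity is measured as reduced terbium-to-fluorescein FRET between streptavidin-terbium on biotinylated Cbl-b and Bodipy-fluorescein ubiquitin carried by an irreversible UbcH5B-Ub conjugate, binding of which depends on Src phosphorylation of Cbl-b.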

T1 sequence (Q13191 36-427): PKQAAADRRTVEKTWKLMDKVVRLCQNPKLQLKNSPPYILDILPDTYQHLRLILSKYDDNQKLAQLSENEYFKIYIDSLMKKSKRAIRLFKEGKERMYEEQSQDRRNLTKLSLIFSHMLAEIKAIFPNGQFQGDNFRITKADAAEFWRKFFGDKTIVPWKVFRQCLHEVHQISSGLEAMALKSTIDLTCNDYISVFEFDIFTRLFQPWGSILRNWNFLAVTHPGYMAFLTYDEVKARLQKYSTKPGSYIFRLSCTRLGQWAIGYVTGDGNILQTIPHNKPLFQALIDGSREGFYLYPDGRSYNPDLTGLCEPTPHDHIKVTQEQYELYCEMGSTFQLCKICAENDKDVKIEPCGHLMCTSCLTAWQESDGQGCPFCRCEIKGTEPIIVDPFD

## C[C@H](Cc1nncn1C)c1cccc(NC(=O)c2coc(C(F)(F)F)n2)c1 [Compound 315, (R)-N-(3-(1-(4-Methyl-4H-1,2,4-triazol-3-yl)propan-2-yl)phenyl)-2-(trifluoromethyl)oxazole-4-carboxamide]
[1]
  IC50: 301 to 1000 nM
[2]
  fold induction at 0.3 µM: < 1
  fold induction at 1 µM: 1.01 to 2.5
  fold induction at 4 µM: 1.01 to 2.5
[3]
  fold induction at 1 µM: 0.051 to 0.1
  fold induction at 8 µM: 0.101 to 0.15
[4]
  fold induction at 1 µM: 0.601 to 0.8
  fold induction at 8 µM: 0.801 to 1
[5]
  fold induction at 0.3 µM: 1.01 to 1.3
  fold induction at 1 µM: 1.01 to 1.3
  fold induction at 4 µM: 1.01 to 1.3

## C[C@H](Cc1nncn1C)c1cc(NC2COC2)cc(N2Cc3c(cccc3C(F)(F)F)C2=O)c1 [Compound 350, 2-{3-[(2R)-1-(4-methyl-4H-1,2,4-triazol-3-yl)propan-2-yl]-5-[(oxetan-3-yl)amino]phenyl}-4-(trifluoromethyl)-2,3-dihydro-1H-isoindol-1-one]
[1]
  IC50: 301 to 1000 nM
[2]
  fold induction at 0.3 µM: < 1
  fold induction at 1 µM: 1.01 to 2.5
  fold induction at 4 µM: 1.01 to 2.5
[3]
  fold induction at 1 µM: 0.051 to 0.1
  fold induction at 8 µM: 0.051 to 0.1
[4]
  fold induction at 1 µM: 0.601 to 0.8
  fold induction at 8 µM: 0.801 to 1
[5]
  fold induction at 0.3 µM: 1.01 to 1.3
  fold induction at 1 µM: 1.01 to 1.3
  fold induction at 4 µM: 1.01 to 1.3

## CC1OCC1Oc1cc([C@H](C)Cc2nncn2C)cc(N2Cc3c(cccc3C(F)(F)F)C2=O)n1 (stereo partly drawn) [Compound 355, 2-(4-((R)-1-(4-methyl-4H-1,2,4-triazol-3-yl)propan-2-yl)-6-((2-methyloxetan-3-yl)oxy)pyridin-2-yl)-4-(trifluoromethyl)isoindolin-1-one]
[1]
  IC50: 301 to 1000 nM
[2]
  fold induction at 0.3 µM: 1.01 to 2.5
  fold induction at 1 µM: 1.01 to 2.5
  fold induction at 4 µM: 1.01 to 2.5
[3]
  fold induction at 1 µM: 0.051 to 0.1
  fold induction at 8 µM: 0.101 to 0.15
[4]
  fold induction at 1 µM: 0.601 to 0.8
  fold induction at 8 µM: 0.601 to 0.8
[5]
  fold induction at 0.3 µM: 1.01 to 1.3
  fold induction at 1 µM: 1.01 to 1.3
  fold induction at 4 µM: 1.01 to 1.3

## C[C@H](Cc1nncn1C)c1cccc(NC(=O)c2cc(C(F)(F)F)n[nH]2)c1 [Compound 314, (R)-N-(3-(1-(4-Methyl-4H-1,2,4-triazol-3-yl)propan-2-yl)phenyl)-3-(trifluoromethyl)-1H-pyrazole-5-carboxamide]
[1]
  IC50: 301 to 1000 nM
[2]
  fold induction at 0.3 µM: 1.01 to 2.5
  fold induction at 1 µM: 1.01 to 2.5
  fold induction at 4 µM: 1.01 to 2.5
[3]
  fold induction at 1 µM: 0.051 to 0.1
  fold induction at 8 µM: 0.101 to 0.15
[4]
  fold induction at 1 µM: 0.601 to 0.8
  fold induction at 8 µM: 0.601 to 0.8
[5]
  fold induction at 0.3 µM: 1.01 to 1.3
  fold induction at 1 µM: 1.01 to 1.3
  fold induction at 4 µM: 1.01 to 1.3

## C[C@H](Sc1nncn1C)c1cccc(NC(=O)c2cc3ccccc3c(C(F)(F)F)n2)c1 [Compound 63, (S)-N-(3-(1-((4-methyl-4H-1,2,4-triazol-3-yl)thio)ethyl)phenyl)-1-(trifluoromethyl)isoquinoline-3-carboxamide]
[1]
  IC50: 3000 to 10000 nM
[6]
  IC50: ≤ 10000 nM

## Cc1cnnn1CC(C)c1cccc(NC(=O)c2cccc(C(F)(F)F)n2)c1 (stereo not drawn) [Compound 218, N-[3-[1-methyl-2-(5-methyltriazol-1-yl)ethyl]phenyl]-6-(trifluoromethyl)pyridine-2-carboxamide]
[1]
  IC50: 301 to 1000 nM
[6]
  IC50: ≤ 500 nM

## C[C@@H]1CN(Cc2cc3c(c(C(F)(F)F)c2)CN(c2cccc(-c4c(-c5nncn5C)cnn4C)c2)C3=O)C[C@H](C)O1 [Compound 525, 6-(((2S,6S)-2,6-dimethylmorpholino)methyl)-2-(3-(l-methyl-4-(4-methyl-4H-1,2,4-triazol-3-yl)-1H-pyrazol-5-yl)phenyl)-4-(trifluoromethyl)isoindolin-1-one]
[1]
  IC50: < 100 nM
[6]
  IC50: ≤ 100 nM

## CC(Sc1nncn1C)c1cc(NCCO)nc(N2Cc3c(cccc3C(F)(F)F)C2=O)c1 (stereo not drawn) [Compound 174, 2-[6-(2-hydroxyethylamino)-4-[1-[(4-methyl-1,2,4-triazol-3-yl)sulfanyl]ethyl]-2-pyridyl]-4-(trifluoromethyl)isoindolin-1-one]
[1]
  IC50: 1000 to 3000 nM
[6]
  IC50: ≤ 10000 nM

## Cn1cnnc1CC1(c2cccc(N3Cc4c(cc(CN5Cc6cccc(C#N)c6C5)cc4C(F)(F)F)C3=O)c2)COC1 [Example 658, 2-((2-(3-(3-((4-methyl-4H-1,2,4-triazol-3-yl)methyl)oxetan-3-yl)phenyl)-3-oxo-7-(trifluoromethyl)isoindolin-5-yl)methyl)isoindoline-4-carbonitrile]
[1]
  IC50: < 100 nM
[6]
  IC50: ≤ 100 nM

## Cn1cnnc1CC1(c2cccc(N3Cc4c(cc(CN5CCc6cnccc6C5)cc4C(F)(F)F)C3=O)c2)COC1 [Example 648, 6-((3,4-dihydro-2,6-naphthyridin-2(1H)-yl)methyl)-2-(3-(3-((4-methyl-4H-1,2,4-triazol-3-yl)methyl)oxetan-3-yl)phenyl)-4-(trifluoromethyl)isoindolin-1-one]
[1]
  IC50: < 100 nM
[6]
  IC50: ≤ 100 nM

## C[C@H](Cc1nncn1C)c1cccc(NC(=O)c2cc(C(=O)N3CC[C@@](C)(N)C3)ccn2)c1 [Compound 230, 4-((R)-3-amino-3-methylpyrrolidine-1-carbonyl)-N-(3-((R)-1-(4-methyl-4H-1,2,4-triazol-3-yl)propan-2-yl)phenyl)picolinamide 2,2,2-trifluoroacetate]
[1]
  IC50: 3000 to 10000 nM
[6]
  IC50: ≤ 10000 nM

## Cn1cnnc1CC1(c2cccc(N3Cc4c(cc(CN5CC[C@@H](F)[C@@H](F)C5)cc4C(F)(F)F)C3=O)c2)COC1 (relative stereo) [Example 634, 6-((cis-3,4-difluoropiperidin-1-yl)methyl)-2-(3-(3-((4-methyl-4H-1,2,4-triazol-3-yl)methyl)oxetan-3-yl)phenyl)-4-(trifluoromethyl)isoindolin-1-one]
[1]
  IC50: < 100 nM
[6]
  IC50: ≤ 100 nM
